From the supplement of paper PMC8092582
± gives the standard deviation of the averaged measurements.

Test system: HeLa
Experiment: cell viability (CellTiter-Glo) relative to median of lowest-dilution wells of all drugs (fraction); higher = more viable cells
Procedure: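 HeLa control and CRISPR DDX11 knockout cells were seeded in 384-well plates and incubated for 72 h with each of 64 […] drugs at six concentrations. Viability was read with CellTiter-Glo and normalised to the median of the lowest (6th) dilution wells of all drugs. Two biological replicates (BR1, BR2) are averaged; the concentration unit is not stated.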

[1] = drug concentration (unit not stated): 0.01, genotype: DDX11 knockout
[2] = drug concentration (unit not stated): 0.01, genotype: control (DDX11 wild type)
[3] = drug concentration (unit not stated): 0.04, genotype: DDX11 knockout
[4] = drug concentration (unit not stated): 0.04, genotype: control (DDX11 wild type)
[5] = drug concentration (unit not stated): 0.12, genotype: DDX11 knockout
[6] = drug concentration (unit not stated): 0.12, genotype: control (DDX11 wild type)
[7] = drug concentration (unit not stated): 0.37, genotype: DDX11 knockout
[8] = drug concentration (unit not stated): 0.37, genotype: control (DDX11 wild type)
[9] = drug concentration (unit not stated): 1.11, genotype: DDX11 knockout
[10] = drug concentration (unit not stated): 1.11, genotype: control (DDX11 wild type)
[11] = drug concentration (unit not stated): 3.33, genotype: DDX11 knockout
[12] = drug concentration (unit not stated): 3.33, genotype: control (DDX11 wild type)
[13] = drug concentration (unit not stated): 10, genotype: DDX11 knockout
[14] = drug concentration (unit not stated): 10, genotype: control (DDX11 wild type)

Row | Compound | cell viability [1] | cell viability [2] | cell viability [3] | cell viability [4] | cell viability [5] | cell viability [6] | cell viability [7] | cell viability [8] | cell viability [9] | cell viability [10] | cell viability [11] | cell viability [12] | cell viability [13] | cell viability [14] | cell viability (drug concentration (unit not stated): 30, genotype: DDX11 knockout) | cell viability (drug concentration (unit not stated): 30, genotype: control (DDX11 wild type))
1 | CC(C)C[C@H](NC(=O)[C@H](Cc1ccccc1)NC(=O)c1cnccn1)B(O)O [Bortezomib (Velcade)] | 0.863 ± 0.14 | 0.807 ± 0.22 | 0.215 ± 0.22 | 0.169 ± 0.17 | 0.0261 ± 0.012 | 0.0235 ± 0.00034 | 0.0196 ± 0.002 | 0.0189 ± 0.00099 | 0.0168 ± 0.0011 | 0.0168 ± 0.0026 | 0.0124 ± 0.00057 | 0.0137 ± 0.003 |  |  |  | 
2 | Nc1cc(C(F)(F)F)c(-c2cc(N3CCOCC3)nc(N3CCOCC3)n2)cn1 [Buparlisib (BKM-120)] |  |  | 1.01 ± 0.023 | 1.01 ± 0.039 | 0.963 ± 0.035 | 0.999 ± 0.046 | 0.881 ± 0.18 | 0.92 ± 0.2 | 0.625 ± 0.13 | 0.772 ± 0.3 | 0.248 ± 0.08 | 0.247 ± 0.11 | 0.045 ± 0.0024 | 0.0382 ± 0.001 |  | 
3 | O=C(O)C1(C(=O)O)CCC1.[NH2-].[NH2-].[Pt+2] [Carboplatin] |  |  |  |  | 0.981 ± 0.017 | 1.013 ± 0.0026 | 0.909 ± 0.031 | 1.03 ± 0.039 | 0.829 ± 0.04 | 1.05 ± 0.14 | 0.425 ± 0.056 | 0.904 ± 0.45 | 0.165 ± 0.021 | 0.331 ± 0.16 | 0.0472 ± 0.0054 | 0.0483 ± 0.0055
4 | CC(C)C[C@H](NC(=O)[C@H](CCc1ccccc1)NC(=O)CN1CCOCC1)C(=O)N[C@@H](Cc1ccccc1)C(=O)N[C@@H](CC(C)C)C(=O)[C@@]1(C)CO1 [Carfilzomib] | 0.6 ± 0.63 | 1.11 ± 0.022 | 0.512 ± 0.7 | 1.1 ± 0.07 | 0.414 ± 0.57 | 1.02 ± 0.14 | 0.0394 ± 0.035 | 0.385 ± 0.37 | 0.00988 ± 0.0031 | 0.0166 ± 0.0079 |  |  |  |  |  | 
5 | CCCCCCNC(=O)n1cc(F)c(=O)[nH]c1=O [Carmofur] |  |  | 1.01 ± 0.038 | 0.998 ± 0.026 | 1.02 ± 0.019 | 1.007 ± 0.0099 | 1.09 ± 0.081 | 1.05 ± 0.044 | 1.02 ± 0.093 | 1.07 ± 0.22 | 0.956 ± 0.24 | 1.03 ± 0.46 | 0.857 ± 0.2 | 0.924 ± 0.39 |  | 
6 | O=C(O)CCCc1ccc(N(CCCl)CCCl)cc1 [Chlorambucil] |  |  | 1.061 ± 0.009 | 0.974 ± 0.056 | 1.02 ± 0.062 | 0.9875 ± 0.0097 | 1.05 ± 0.11 | 1.02 ± 0.012 | 1.06 ± 0.057 | 0.999 ± 0.021 | 1.07 ± 0.042 | 1.05 ± 0.082 | 0.925 ± 0.1 | 1.03 ± 0.051 |  | 
7 | N.N.[Cl][Pt][Cl] [Cisplatin] |  |  | 0.76437 ± 0.00042 | 0.986 ± 0.093 | 0.541 ± 0.11 | 0.885 ± 0.29 | 0.233 ± 0.12 | 0.464 ± 0.12 | 0.0768 ± 0.043 | 0.112 ± 0.0088 | 0.0231 ± 0.0084 | 0.024 ± 0.0028 | 0.0148 ± 0.0023 | 0.0159 ± 0.0015 |  | 
8 | Nc1nc(Cl)nc2c1ncn2[C@H]1C[C@H](O)[C@@H](CO)O1 [Cladribine] | 0.96 ± 0.03 | 0.977 ± 0.015 | 1.04 ± 0.035 | 1.04 ± 0.052 | 1.09 ± 0.077 | 1.2 ± 0.25 | 0.935 ± 0.024 | 1.06 ± 0.25 | 0.487 ± 0.34 | 0.468 ± 0.15 | 0.135 ± 0.12 | 0.103 ± 0.056 |  |  |  | 
9 | Nc1nc(Cl)nc2c1ncn2[C@@H]1O[C@H](CO)[C@@H](O)[C@@H]1F [Clofarabine] | 1.03 ± 0.061 | 1.04 ± 0.013 | 0.967 ± 0.12 | 0.999 ± 0.11 | 0.699 ± 0.46 | 0.887 ± 0.6 | 0.177 ± 0.19 | 0.181 ± 0.2 | 0.0355 ± 0.013 | 0.0535 ± 0.038 |  |  |  |  |  | 
10 | Nc1ccn([C@@H]2O[C@H](CO)[C@@H](O)[C@@H]2O)c(=O)n1 [Cytarabine] | 1.05 ± 0.017 | 1.02 ± 0.028 | 1 ± 0.016 | 1.02 ± 0.058 | 0.987 ± 0.12 | 1.02 ± 0.096 | 0.728 ± 0.11 | 0.994 ± 0.21 | 0.682 ± 0.14 | 0.907 ± 0.41 |  |  |  |  |  | 
